Assay results published in patent US12649750B2, “Macrocyclic compounds, compositions, and methods of using thereof” (Sionna Therapeutics Inc., priority 2022, dated 2026).

Legend:
NBD1 = target: T1, NBD1 (Homo sapiens, UniProt P13569); experiment: Aggregation analysis using differential static light scattering (DSLS), thermal stability of NBD1 (ΔTagg); assay type: binding; conditions: ΔTagg versus DMSO control, NBD1 0.2 mg/ml
T1 construct: Purified recombinant NBD1 was produced using previously described methods; made in house
T1 sequence (P13569 423-646 limits assumed): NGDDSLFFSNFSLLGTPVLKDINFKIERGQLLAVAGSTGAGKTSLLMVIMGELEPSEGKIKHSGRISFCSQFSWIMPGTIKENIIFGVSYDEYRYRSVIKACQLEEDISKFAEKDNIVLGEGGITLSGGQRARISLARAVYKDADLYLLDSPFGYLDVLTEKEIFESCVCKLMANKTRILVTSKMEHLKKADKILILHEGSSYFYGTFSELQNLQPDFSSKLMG
Summary of the method: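 NBD1 0.2 mg/ml, S200 buffer (50 mM Tris-HCl, 150 mM NaCl, 5 mM MgCl2, 2 mM ATP, 2 mM DTT, pH7.6) + 1% glycerol; cpd in DMSO; oil overlay. Ramp 25→70° C. at 1° C./min, DSLS images every 0.5° C. ΔTagg = Tagg (inflection) − mean DMSO Tagg.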

CFTR = target: T2, CFTR (Homo sapiens, UniProt P13569, DEL508-508); experiment: TECC24 AUC fold over DMSO @10 μM, CFTR-mediated transepithelial chloride transport in CF-HBE cells; assay type: cell-based; conditions: test agent AUC divided by DMSO vehicle AUC, primary CF-HBE cells, ΔF508 homozygous donor, 48 hours incubation
T2 construct: Primary human bronchial epithelial cells from a ΔF508 homozygous CF donor; host or cells: primary human bronchial epithelial cells (CF-HBE), ΔF508 homozygous donor
T2 sequence (P13569 with tags, fused parts or gaps DEL508-508): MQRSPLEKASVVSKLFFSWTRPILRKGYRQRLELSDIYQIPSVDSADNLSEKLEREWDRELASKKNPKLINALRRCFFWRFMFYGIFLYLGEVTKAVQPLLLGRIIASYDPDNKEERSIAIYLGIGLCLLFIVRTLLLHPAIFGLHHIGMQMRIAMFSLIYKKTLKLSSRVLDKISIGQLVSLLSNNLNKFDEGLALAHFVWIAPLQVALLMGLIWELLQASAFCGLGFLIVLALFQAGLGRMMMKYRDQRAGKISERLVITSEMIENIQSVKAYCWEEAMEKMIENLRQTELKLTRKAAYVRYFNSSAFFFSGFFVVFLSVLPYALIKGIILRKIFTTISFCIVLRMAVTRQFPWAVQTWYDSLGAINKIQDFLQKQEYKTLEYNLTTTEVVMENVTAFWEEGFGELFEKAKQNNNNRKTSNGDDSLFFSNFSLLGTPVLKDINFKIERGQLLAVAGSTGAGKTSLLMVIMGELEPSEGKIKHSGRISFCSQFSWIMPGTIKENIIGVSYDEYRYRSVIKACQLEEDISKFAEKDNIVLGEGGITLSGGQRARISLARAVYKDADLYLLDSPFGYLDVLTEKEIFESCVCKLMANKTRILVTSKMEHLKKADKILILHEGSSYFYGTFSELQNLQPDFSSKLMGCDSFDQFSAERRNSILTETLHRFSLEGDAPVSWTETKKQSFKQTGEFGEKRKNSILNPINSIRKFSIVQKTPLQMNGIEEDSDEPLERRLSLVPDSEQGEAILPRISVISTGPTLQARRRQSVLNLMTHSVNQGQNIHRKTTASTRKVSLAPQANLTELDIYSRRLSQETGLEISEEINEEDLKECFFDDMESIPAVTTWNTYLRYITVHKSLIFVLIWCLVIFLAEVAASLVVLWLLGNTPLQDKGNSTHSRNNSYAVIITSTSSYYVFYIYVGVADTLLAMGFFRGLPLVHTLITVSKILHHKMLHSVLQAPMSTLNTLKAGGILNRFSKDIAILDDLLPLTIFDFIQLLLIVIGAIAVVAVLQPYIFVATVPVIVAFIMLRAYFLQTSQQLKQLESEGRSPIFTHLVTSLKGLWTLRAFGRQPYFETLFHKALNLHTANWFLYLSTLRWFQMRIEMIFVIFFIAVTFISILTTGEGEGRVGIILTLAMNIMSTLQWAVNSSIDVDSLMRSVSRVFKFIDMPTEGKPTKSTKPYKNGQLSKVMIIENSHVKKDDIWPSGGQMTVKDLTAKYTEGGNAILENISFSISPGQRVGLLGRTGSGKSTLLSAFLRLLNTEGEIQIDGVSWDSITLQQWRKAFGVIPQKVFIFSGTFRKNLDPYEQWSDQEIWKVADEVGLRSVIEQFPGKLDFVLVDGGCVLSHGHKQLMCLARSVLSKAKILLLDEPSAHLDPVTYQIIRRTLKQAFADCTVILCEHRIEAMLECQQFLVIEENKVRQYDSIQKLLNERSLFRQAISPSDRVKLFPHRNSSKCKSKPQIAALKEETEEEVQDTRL
Summary of the method: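 Value is ratio of test-agent to DMSO AUC of equivalent transepithelial Cl− current, integrated from forskolin (10 μM) stimulation to CFTR inhibitor-172 (20 μM) block, with benzamil 10 μM present. CF-HBE (ΔF508/ΔF508) cultures had 48 h compound exposure at 10 μM, 36.5° C before recording.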

Row | SMILES | DSLS 3D (100 μM ΔT) (NBD1) | TECC (AUC, 10 μM) (CFTR)
1 | CC1(C)CCCC(C)(c2cccc(OCC(=O)O)c2)c2cnc([nH]2)-c2cc(ccc2F)Oc2c(F)cc3[nH]ccc3c2CCS(=O)(=O)C1 (single isomer, unassigned) [Compound 54A, 2-[3-(22,28-difluoro-6,10,10-trimethyl-12,12-dioxo-24-oxa-12lambda6-thia-3,19,30-triazapentacyclo[23.3.1.12,5.015,23.016,20]triaconta-1(29),2,4,15,17,20,22,25,27-nonaen-6-yl)phenoxy]acetic acid] | C (a value greater than 10 °C and less than or equal to 25 °C is marked “C”) | C (a value between 20 and 80 is marked “C”)
2 | CC1(C)CCCC(C)(c2cccc(OCC(=O)O)c2)c2cnc([nH]2)-c2cc(ccc2F)Oc2c(F)cc3[nH]ccc3c2CCS(=O)(=O)C1 (single isomer, unassigned) [Compound 54B, 2-[3-(22,28-difluoro-6,10,10-trimethyl-12,12-dioxo-24-oxa-12lambda6-thia-3,19,30-triazapentacyclo[23.3.1.12,5.015,23.016,20]triaconta-1(29),2,4,15,17,20,22,25,27-nonaen-6-yl)phenoxy]acetic acid] | B (a value above 5 °C and less than or equal to 10 °C is marked “B”) | A (a TECC value less than 12 is marked “A”)
3 | Cn1nc2nc1C(C)(c1cccc(CCC(=O)O)c1)CCCC(C)(C)CS(=O)(=O)CCc1c(c(F)cc3[nH]ccc13)Oc1ccc(F)c-2c1 (single isomer, unassigned) [Compound 55A, 3-[3-(22,28-difluoro-4,6,10,10-tetramethyl-12,12-dioxo-24-oxa-12 lambda6-thia-3,4,19,30-tetrazapentacyclo[23.3.1.12,5.015,23.016,20]triaconta-1(29),2,5(30),15,17,20,22,25,27-nonaen-6yl)phenyl]propanoic Acid] | C (a value greater than 10 °C and less than or equal to 25 °C is marked “C”) | A (a TECC value less than 12 is marked “A”)
4 | Cn1nc2nc1C(C)(c1cccc(CCC(=O)O)c1)CCCC(C)(C)CS(=O)(=O)CCc1c(c(F)cc3[nH]ccc13)Oc1ccc(F)c-2c1 (single isomer, unassigned) [Compound 55B, 3-[3-(22,28-difluoro-4,6,10,10-tetramethyl-12,12-dioxo-24-oxa-12 lambda6-thia-3,4,19,30-tetrazapentacyclo[23.3.1.12,5.015,23.016,20]triaconta-1(29),2,5(30),15,17,20,22,25,27-nonaen-6yl)phenyl]propanoic Acid] | B (a value above 5 °C and less than or equal to 10 °C is marked “B”) | A (a TECC value less than 12 is marked “A”)
5 | CC1(C)CCCC(C)(c2cccc(CCC(=O)O)c2)c2nc(n[nH]2)-c2cc(ccc2F)Oc2c(F)cc3[nH]ccc3c2CCS(=O)(=O)C1 (single isomer, unassigned) [Compound 63A, 3-[3-(22,28-difluoro-6,10,10-trimethyl-12,12-dioxo-24-oxa-12λ6-thia-3,4,19,30-tetrazapentacyclo[23.3.1.12,5.015,23.016,20]triaconta-1(29),2,5(30),15,17,20,22,25,27-nonaen-6-yl)phenyl]propanoic Acid] | B (a value above 5 °C and less than or equal to 10 °C is marked “B”) | C (a value between 20 and 80 is marked “C”)
6 | CC1(C)CCCC(C)(c2cccc(CCC(=O)O)c2)c2nc(n[nH]2)-c2cc(ccc2F)Oc2c(F)cc3[nH]ccc3c2CCS(=O)(=O)C1 (single isomer, unassigned) [Compound 63B, 3-[3-(22,28-difluoro-6,10,10-trimethyl-12,12-dioxo-24-oxa-12λ6-thia-3,4,19,30-tetrazapentacyclo[23.3.1.12,5.015,23.016,20]triaconta-1(29),2,5(30),15,17,20,22,25,27-nonaen-6-yl)phenyl]propanoic Acid] | C (a value greater than 10 °C and less than or equal to 25 °C is marked “C”) | C (a value between 20 and 80 is marked “C”)
7 | Cc1cnn2c1-c1cc(ccc1F)Oc1c(F)cc3[nH]ccc3c1CCS(=O)(=O)CC(C)(C)CCCC2c1cccc(CCC(=O)O)c1 (single isomer, unassigned) [Compound 65A, 3-[3-(23,29-Difluoro-3,11,11-trimethyl-13,13-dioxo-25-oxa-13λ6-thia-5,6,20-triazapentacyclo[24.3.1.02,6.016,24.017,21]triaconta-1(30),2,4,16,18,21,23,26,28-nonaen-7-yl)phenyl]propanoic acid] | B (a value above 5 °C and less than or equal to 10 °C is marked “B”) | A (a TECC value less than 12 is marked “A”)
8 | Cc1cnn2c1-c1cc(ccc1F)Oc1c(F)cc3[nH]ccc3c1CCS(=O)(=O)CC(C)(C)CCCC2c1cccc(CCC(=O)O)c1 (single isomer, unassigned) [Compound 65B, 3-[3-(23,29-Difluoro-3,11,11-trimethyl-13,13-dioxo-25-oxa-13λ6-thia-5,6,20-triazapentacyclo[24.3.1.02,6.016,24.017,21]triaconta-1(30),2,4,16,18,21,23,26,28-nonaen-7-yl)phenyl]propanoic acid] | C (a value greater than 10 °C and less than or equal to 25 °C is marked “C”) | A (a TECC value less than 12 is marked “A”)
9 | CC(CC(=O)O)c1cccc(C2(C)CCOC(C)(C)CS(=O)(=O)CCc3c(c(F)cc4[nH]ccc34)Oc3ccc(F)c(c3)-c3nc2nn3C)c1 (single isomer, unassigned) [Compound 72A, 3-[3-(22,28-difluoro-3,6,10,10-tetramethyl-12,12-dioxo-9,24-dioxa-12lambda6-thia-3,4,19,30-tetrazapentacyclo-[23.3.1.12,5.015,23.016,20]triaconta-1(29),2(30),4,15,17,20,22,25,27-nonaen-6-yl)phenyl]-butanoic Acid] | C (a value greater than 10 °C and less than or equal to 25 °C is marked “C”) | A (a TECC value less than 12 is marked “A”)
10 | CC(CC(=O)O)c1cccc(C2(C)CCOC(C)(C)CS(=O)(=O)CCc3c(c(F)cc4[nH]ccc34)Oc3ccc(F)c(c3)-c3nc2nn3C)c1 (single isomer, unassigned) [Compound 72B, 3-[3-(22,28-difluoro-3,6,10,10-tetramethyl-12,12-dioxo-9,24-dioxa-12lambda6-thia-3,4,19,30-tetrazapentacyclo-[23.3.1.12,5.015,23.016,20]triaconta-1(29),2(30),4,15,17,20,22,25,27-nonaen-6-yl)phenyl]-butanoic Acid] | A (an ΔTagg value less than or equal to 5 °C is marked “A”) | A (a TECC value less than 12 is marked “A”)
11 | Cn1nc2nc1-c1cc(ccc1F)Oc1c(F)cc3[nH]ccc3c1CCS(=O)(=O)CC(C)(C)OCCC2(C)c1cccc(CCC(=O)O)c1 (single isomer, unassigned) [Compound 73A, 3-[3-(22,28-difluoro-3,6,10,10-tetramethyl-12,12-dioxo-9,24-dioxa-12lambda6-thia-3,4,19,30-tetrazapentacyclo-[23.3.1.12,5.015,23.016,20]triaconta-1(29),2(30),4,15,17,20,22,25,27-nonaen-6-yl)phenyl]-propanoic Acid] | C (a value greater than 10 °C and less than or equal to 25 °C is marked “C”) | A (a TECC value less than 12 is marked “A”)
12 | Cn1nc2nc1-c1cc(ccc1F)Oc1c(F)cc3[nH]ccc3c1CCS(=O)(=O)CC(C)(C)OCCC2(C)c1cccc(CCC(=O)O)c1 (single isomer, unassigned) [Compound 73B, 3-[3-(22,28-difluoro-3,6,10,10-tetramethyl-12,12-dioxo-9,24-dioxa-12lambda6-thia-3,4,19,30-tetrazapentacyclo-[23.3.1.12,5.015,23.016,20]triaconta-1(29),2(30),4,15,17,20,22,25,27-nonaen-6-yl)phenyl]-propanoic Acid] | A (an ΔTagg value less than or equal to 5 °C is marked “A”) | B (a value between 12-20 is marked “B”)
13 | CC(CC(=O)O)c1cccc(C2(C)CCCC(C)(C)CS(=O)(=O)CCc3c(c(F)cc4[nH]ccc34)Oc3ccc(F)c(c3)-c3nc2nn3C)c1 (single isomer, unassigned) [Compound 79A, 3-[3-(22,28-difluoro-3,6,10,10-tetramethyl-12,12-dioxo-24-oxa-12lambda6-thia-3,4,19,30-tetrazapentacyclo[23.3.1.12,5.015,23.016,20]triaconta-1(29),2(30),4,15,17,20,22,25,27-nonaen-6-yl)phenyl]butanoic Acid] | C (a value greater than 10 °C and less than or equal to 25 °C is marked “C”) | C (a value between 20 and 80 is marked “C”)
14 | CC(CC(=O)O)c1cccc(C2(C)CCCC(C)(C)CS(=O)(=O)CCc3c(c(F)cc4[nH]ccc34)Oc3ccc(F)c(c3)-c3nc2nn3C)c1 (single isomer, unassigned) [Compound 79B, 3-[3-(22,28-difluoro-3,6,10,10-tetramethyl-12,12-dioxo-24-oxa-12lambda6-thia-3,4,19,30-tetrazapentacyclo[23.3.1.12,5.015,23.016,20]triaconta-1(29),2(30),4,15,17,20,22,25,27-nonaen-6-yl)phenyl]butanoic Acid] | B (a value above 5 °C and less than or equal to 10 °C is marked “B”) | A (a TECC value less than 12 is marked “A”)
